Among the test systems are SNB-19 CNS; NCI/ADR-RES ovarian; MDA-MB-435; SK-OV-3 ovarian; MCF7 breast; 786-0 renal; SW-620 colon; T-47D breast; RXF 393 renal; IGROV1 ovarian; HOP-92 NSCLC; MOLT-4 leukemia; CAKI-1 renal; ACHN renal; EKVX NSCLC; UACC-257 melanoma; SF-539 CNS; NCI-H460 lung; HCC-2998 colon.
Common to all, as to assay: inhibition of tumour cell growth, NCI panel, 48 h

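The compound was tested at five concentrations on cells cultured in 96-well plates, with a 48-hour exposure period. TGI: total growth inhibition.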

As for `CN1C2CCC1CC(OC(c1ccccc1)c1ccccc1)C2` (stereo not drawn), the TGI with SNB-19 CNS amounted to 48.3 µM; in the experiment with NCI/ADR-RES ovarian, 34.3 µM; in the experiment on MDA-MB-435, 29.8 µM; with SK-OV-3 ovarian, 47.1 µM; in the experiment on MCF7 breast it was 26.9 µM; with 786-0 renal, 27 µM. For the same compound, the TGI in the experiment on SW-620 colon worked out at 27.6 µM; with T-47D breast it was 80.1 µM; in the experiment on RXF 393 renal, 42.3 µM; in the experiment on IGROV1 ovarian, 38.8 µM; in the experiment on HOP-92 NSCLC, 29.1 µM; in the experiment with MOLT-4 leukemia, 73.6 µM. The TGI in the experiment with CAKI-1 renal is over 100 µM; in the experiment with ACHN renal, 59.2 µM; in the experiment on EKVX NSCLC it was 91.2 µM; with UACC-257 melanoma it was 26.6 µM.
`Cc1c(N2C(=O)/C(=C/C=C/c3ccccc3)N=C2c2ccccc2)c(=O)n(-c2ccccc2)n1C`: the TGI with NCI/ADR-RES ovarian was 55 µM; in the experiment with SF-539 CNS, 47.1 µM; with MDA-MB-435, 33.1 µM; with SK-OV-3 ovarian, 66.9 µM; in the experiment with MCF7 breast, over 100 µM; with 786-0 renal it was over 100 µM. Further, the TGI in the experiment on SW-620 colon is 99.4 µM; in the experiment on T-47D breast, over 100 µM; in the experiment with RXF 393 renal, 33.2 µM; in the experiment with IGROV1 ovarian, 35.5 µM; in the experiment with HOP-92 NSCLC, 51.3 µM; with MOLT-4 leukemia, 78.8 µM. For the same compound, the TGI in the experiment on CAKI-1 renal is over 100 µM; in the experiment with ACHN renal, 34.1 µM; in the experiment with EKVX NSCLC, 36.5 µM; with UACC-257 melanoma, 42.1 µM; with NCI-H460 lung, over 100 µM.
Consider `Cc1[nH]c2ncn3nc(C(Cl)(Cl)Cl)nc3c2c1Cc1ccccc1`, for which the TGI with SNB-19 CNS, in the experiment on NCI/ADR-RES ovarian, with SF-539 CNS, in the experiment with MDA-MB-435, in the experiment with SK-OV-3 ovarian and with MCF7 breast was over 100 µM in each case. Moreover, the TGI with 786-0 renal, in the experiment on SW-620 colon, in the experiment with T-47D breast, in the experiment with RXF 393 renal, with IGROV1 ovarian and in the experiment with MOLT-4 leukemia was over 100 µM each time. Further, the TGI in the experiment on CAKI-1 renal, in the experiment on ACHN renal, in the experiment with HCC-2998 colon, with EKVX NSCLC, in the experiment on UACC-257 melanoma and in the experiment with NCI-H460 lung was over 100 µM in each case.
With `Cc1ccc(-c2c(C#N)c(-c3ccc(Cl)cc3)c(C#N)c(=O)n2NS(=O)(=O)c2ccccc2)cc1`, the TGI in the experiment on SNB-19 CNS, in the experiment with NCI/ADR-RES ovarian, in the experiment on SF-539 CNS, in the experiment with MDA-MB-435, with SK-OV-3 ovarian and in the experiment with MCF7 breast was over 100 µM each time. Moreover, the TGI in the experiment on 786-0 renal, in the experiment with SW-620 colon, in the experiment with RXF 393 renal, with IGROV1 ovarian, in the experiment with HOP-92 NSCLC and with MOLT-4 leukemia was over 100 µM in each case. The TGI with CAKI-1 renal, in the experiment on ACHN renal, in the experiment on HCC-2998 colon, with EKVX NSCLC, in the experiment with UACC-257 melanoma and in the experiment on NCI-H460 lung was over 100 µM throughout.
For `CNc1ncnc(Sc2nc(N)nc3nc[nH]c23)c1[N+](=O)[O-]`, the TGI was over 81.2 µM in the experiment on SNB-19 CNS; 34.4 µM with NCI/ADR-RES ovarian; 28.9 µM in the experiment on SF-539 CNS; 12 µM in the experiment with MDA-MB-435; over 100 µM in the experiment with SK-OV-3 ovarian; over 41.5 µM with MCF7 breast. Besides, the TGI turned out to be 16.5 µM with 786-0 renal; 20.6 µM in the experiment with SW-620 colon; 16.8 µM in the experiment on T-47D breast; 8.06 µM in the experiment with RXF 393 renal; 22.1 µM with IGROV1 ovarian; 16.4 µM in the experiment on HOP-92 NSCLC. For the same compound, the TGI is 4.77 µM in the experiment on MOLT-4 leukemia; 12.9 µM with CAKI-1 renal; 14.7 µM in the experiment with ACHN renal; 47 µM in the experiment with EKVX NSCLC; 13 µM in the experiment on UACC-257 melanoma; 3.28 µM in the experiment with NCI-H460 lung.
For `CCOC(=O)c1c(C)n(Cc2ccccc2)c(=O)c2ccccc2c(=O)c2c(=O)ccc(=O)c1=2`, the TGI was over 100 µM with SNB-19 CNS; over 100 µM in the experiment with NCI/ADR-RES ovarian; over 100 µM in the experiment with SF-539 CNS; over 100 µM in the experiment on MDA-MB-435; over 100 µM in the experiment on SK-OV-3 ovarian; 75.3 µM in the experiment with 786-0 renal. Moreover, the TGI was over 100 µM in the experiment with SW-620 colon; 86.3 µM with T-47D breast; 40.7 µM in the experiment with RXF 393 renal; 67.9 µM with IGROV1 ovarian; 41.5 µM with HOP-92 NSCLC; over 100 µM in the experiment on MOLT-4 leukemia. For the same compound, the TGI is over 100 µM in the experiment with CAKI-1 renal; 77.1 µM in the experiment on ACHN renal; over 100 µM with HCC-2998 colon; over 100 µM with EKVX NSCLC; over 100 µM in the experiment on UACC-257 melanoma; over 100 µM in the experiment on NCI-H460 lung.
As for `CN(C1=NCCO1)c1cccc2ccccc12`, the TGI with SNB-19 CNS, in the experiment with NCI/ADR-RES ovarian, with SF-539 CNS, with MDA-MB-435, in the experiment on SK-OV-3 ovarian and with MCF7 breast was over 10 µM in each case. Also, the TGI in the experiment on SW-620 colon, in the experiment on T-47D breast, with RXF 393 renal, with IGROV1 ovarian, in the experiment with MOLT-4 leukemia and with CAKI-1 renal was over 10 µM throughout. Further, the TGI in the experiment on ACHN renal, in the experiment on HCC-2998 colon, in the experiment with EKVX NSCLC and with NCI-H460 lung was over 10 µM throughout.
Take `NC(=O)NC(=O)c1cnccn1`: the TGI in the experiment on SNB-19 CNS, in the experiment on NCI/ADR-RES ovarian, in the experiment on SF-539 CNS, in the experiment with MDA-MB-435, in the experiment on SK-OV-3 ovarian and in the experiment with MCF7 breast was over 100 µM throughout. Moreover, the TGI with 786-0 renal, with SW-620 colon, in the experiment on RXF 393 renal, in the experiment with HOP-92 NSCLC, in the experiment on MOLT-4 leukemia and in the experiment with CAKI-1 renal was over 100 µM each time. Also, the TGI with ACHN renal, in the experiment with HCC-2998 colon, in the experiment with EKVX NSCLC, in the experiment on UACC-257 melanoma and in the experiment with NCI-H460 lung was over 100 µM in each case.

For the origin of these results see PubChem BioAssay (NCI).
